Data from patent US6767558B2, “Inhibiting oxidative degradation of pharmaceutical formulations” (Pfizer Inc., priority 2000, dated 2004).

Key:
[1] = Accelerated stability of Compound 1 tablets; oxidative degradation by-products by RPLC; assay type: physicochemical; settings: addition of ferrous ion source to the formulation, six weeks
Protocol: Compound 1 was formulated with, inter alia, excipients comprising about 0.01% by weight of ammonium ferrous sulfate hexahydrate into solid binary pharmaceutical formulations as follows. A solution of 350 mg of ferrous ammonium sulfate hexahydrate, dissolved in 100 ml of pure water, was added to 500 g of microcrystalline cellulose (Avicel®; FMC; Philadelphia, Pa.) and the mixture was mixed thoroughly for about ten minutes. The mixture was then dried in an Aeromatic fluid-bed dryer (Niro Inc.; Columbia, Md.) at an inlet temperature of 65° C. The dried Avicel® excipient so prepared comprising the ferrous ion source was milled through a Mini-Comil 193 (Quadro Engineering; Waterloo, Ontario, Canada) with a stainless steel screen. This identical procedure was employed to prepare excipients comprising lactose and the ferrous ion source. A pre-determined amount of Compound 1, the dried Avicel® or lactose excipient comprising the ferrous ion source, and crospovidone (BASF Corp.; Mount Olive, N.J.) were added to a stainless steel V-blender and blended for about 20 minutes. Magnesium stearate was then added and the resulting mixture was blended for an additional five minutes. […]

[2] = Accelerated stability of Compound 2 formulations; N-oxide degradation product by RPLC; assay type: physicochemical; settings: addition of ferrous ion source to the formulations, six weeks
Protocol: Compound 2 was similarly formulated with, inter alia, excipients comprising about 0.01% of ferrous ammonium sulfate hexahydrate into solid binary pharmaceutical formulations. The excipients further included microcrystalline cellulose (Avicel®), lactose, or silicified microcrystalline cellulose (Prosolv®; Penwest Pharmaceuticals; Patterson, N.Y.).
The formulations so prepared were then stored under accelerated stability conditions, i.e. at 40° C. at 75% relative humidity and 50° C. at 20% relative humidity for six weeks. Reversed-phase ion pair liquid chromatography (RPLC) was used to separate Compound 2 from its N-oxide oxidative degradation product. RPLC was performed utilizing a Waters Symmetry C18 column (Waters Instrument Co.; Milford, Mass.) 15 cm length×3.9 mm I.D. at a temperature of 40° C. using a mobile phase of buffer (20 mM KH2PO4 (pH adjusted to 3.0 with phosphoric acid, with 0.1% octanesulfonic acid): acetonitrile (60:40 v/v), a flow rate of 1.0 mL/min., and an injection volume of 10 μL at a run time of 35 minutes. [drawing 2]

| formation of M+16 and M+32 oxidative degradation by-products on addition of the ferrous ion source [1] | formation of N-oxide oxidative degradation by-product on addition of the ferrous ion source [2] | SMILES |
| --- | --- | --- |
| inhibited significantly | – | COc1ccc(C(C)C)cc1CN[C@H]1C2CCN(CC2)[C@H]1C(c1ccccc1)c1ccccc1 [Compound 1, (2S,3S)-N-(5-isopropyl-2-methoxyphenyl)methyl-2-diphenylmethyl-1-azabicyclo[2.2.2]octan-3-amine] |
| – | inhibited significantly | Oc1ccc2c(c1)CC[C@H](c1ccccc1)[C@@H]2c1ccc(OCCN2CCCC2)cc1 (relative stereo) [Compound 2, cis-6-phenyl-5-[4-(2-pyrrolidin-1-yl-ethoxy)-phenyl]-5,6,7,8-tetrahydronaphthalen-2-ol] |
